Laboratory results published in US9173838B2, “Reverse micelle compositions for delivery of metal cations comprising a diglyceride and a phytosterol and method of preparation” (MEDESIS PHARMA SA, priority 2004, dated 2015).

Legend:
[1] = tested on: adryamycin-induced inflammation/oedema in male Wistar rat leg; assay: SOD like activity on rats: test with adryamycin (oedema by plethysmography); assay type: in vivo
Method: 2—<<SOD Like>> Activity on Rats: Test with Adryamycin
The test with adryamycin is a specific test to highlight free anti-radicals activity of a substance. The product contains reverse micelles based on manganese prepared according to example 3.
One hour after injection in the leg of a male Wistar rat of 0.2 ml of a solution of adryamycin, a temporary inflammation appears for approximately 12 hours. A second inflammatory phase begins on the 3rd day and lasts for 5 days. The vascular hyperpermeability and the oedema which results therefrom, with a deterioration of the cells of endothelial membranes, are caused by the release of free radicals. […] The oedema is measured by plethysmography (expressed by % of pow volume).
3 batches of 10 rats are made up: • negative batch controls: olive oil administration (2 ml/kg) by rectal route • positive batch controls: administration of 100 mg/kg of diosmine • batch treated by NP 02 (manufactured according to example 3): 2 ml/kg by rectal route Results (SD Stands for Standard Deviation)—FIG. 3

[2] = tested on: fructose rats (non insulin dependent diabetes model); assay: Antidiabetic activity on fructose rats; assay type: in vivo; conditions: for glycemia D 0: D0 before start of treatment (baseline); for glycemia D3: day 3 of daily treatment; for glycemia D7: day 7 of daily treatment; for glycemia D21: day 21 of daily treatment
Description: 1—Antidiabetic Activity on Fructose Rats
The model of the fructose rats is a non insulin dependent diabetes (NIDD) similar to the observed human type 2 diabetes.
In this study, the NP 01 product contains reverse micelles based on vanadium, prepared according to example 2. Its therapeutic activity is compared with two reference drugs: Metformin and Rosiglitazone.
At D −21, after the period of stalling, rats are weighed and a blood sampling is made to determine the basal values of the biochemical parameters.
The rats are distributed randomly in groups of 10 rats. The drink water is then replaced by a solution of fructose 10% in distilled water. This solution is provided ad libitum for 21 days. They receive then again normal water for the following 21 days of the treatment.
At D 0, animals are weighed and a blood sampling is carried out.
The treatment then starts for a 21-day duration, with a daily administration: • Control group: 1 ml/kg of normal water per os • NP 01group: 2 ml/kg by the rectal route • Metformin group: 50 mg/kg of Metformin per os. • Rosiglitazone group: 5 mg/kg of Rosiglitazone per os
At D 21, blood sample and end of the treatment.

[3] = Strontium amount in bone and plasma of growing rats (atomic absorption); assay type: in vivo, Wistar female rats; conditions: end of 6 weeks treatment
Method: (§1) The animals are Wistar female rats of 200 g (average).
(§2) Homogeneous batches of 10 rats are made up starting from their weight.
(§3) The treatment is administered once per day during 6 weeks.
(§4) Administered batches and products: • control batch (administration of olive oil by rectal route) • SrCl2 batch (SrCl2 and strontium ranelate are known active ingredients for the osseous growth and treatment of osteoporosis). 68.2 mg of metal Sr/kg/day are administered by rectal route. • NP 05 A batch: product prepared according to example 4 of the invention, with 12.5 mg metal Sr/kg/day.
(§5) NP 05 B batch: product prepared according to example 5 of the invention, with 1.21 mg metal Sr/kg/day.
(§6) NP 05 C batch: product prepared according to example 6 of the invention, with 0.12 mg metal Sr/kg/day.
(§7) Parameters analyzed at the end of the treatment: • animals weight • measurement of the diameter of the rats femoral head after euthanasia and sampling (slide caliper under binocular magnifying glass) • Strontium amount in bone (by atomic absorption). • Strontium amount in plasma (by atomic absorption). Results

growing rats = assay: Stimulation of the osseous growth on growing rats (femoral diameter); assay type: in vivo, Wistar female rats; conditions: once per day during 6 weeks, rectal route
Method: 3—Stimulation of the Osseous Growth on Growing Rats
The objective of this study is the assessment of a stimulation activity of the osseous growth in growing rats.
The product contains reverse micelles based on strontium prepared according to example 4.
as §1, §2, §3, §4, §5, §6, §7

In the case of `COc1ccc(-c2cc(=O)c3c(O)cc(O[C@@H]4O[C@H](CO[C@@H]5O[C@@H](C)[C@H](O)[C@@H](O)[C@H]5O)[C@@H](O)[C@H](O)[C@H]4O)cc3o2)cc1O` [Positive control, diosmine], the “free anti-radicals activity (in words)” value [1] is reported as “free anti-radical activity similar to Manganese superoxydismutase”, the “% of pow volume D1” value ([1]; Wistar rats, D1) is reported as 106.7% and the “% of pow volume D2” value ([1]; Wistar rats, D2) is reported as 120.8%. For the same compound, the “% of pow volume D3” value ([1]; Wistar rats, D3) was 152.2%, the “% of pow volume D4” value ([1]; Wistar rats, D4) was 163% and the “% of pow volume D5” value ([1]; Wistar rats, D5) was 177.6%. The “% of pow volume D6” value ([1]; Wistar rats, D6) was 177.5%, the “% of pow volume D7” value ([1]; Wistar rats, D7) was 168.2% and the “% of pow volume D8” value ([1]; Wistar rats, D8) was 163.5%.

In the case of `CN(C)C(=N)N=C(N)N` [Metformin], the “glycemia D 0” value [2] is reported as 10.64 mmol/L, the “glycemia D3” value [2] is reported as 10.63 mmol/L and the “glycemia D7” value [2] is reported as 9.68 mmol/L. For the same compound, the “glycemia D21” value [2] was 8.91 mmol/L.

In the case of `[Cl-].[Cl-].[Sr+2]` [SrCl2], the Sr in bone [3] is reported as 1508.83 µg/g and the Femoral diameter (growing rats) is reported as 3.93 mm.

With `CN(CCOc1ccc(CC2SC(=O)NC2=O)cc1)c1ccccn1` (stereo not shown) [Rosiglitazone] the “glycemia D 0” value [2] was 10.38 mmol/L, the “glycemia D3” value [2] was 10.47 mmol/L and the “glycemia D7” value [2] was 9.37 mmol/L. The “glycemia D21” value [2] was 9.13 mmol/L.
